Key:
Format in all cases: functional
Set-up in all cases: scale not given: the % may be the effect or the level left
[1] = Antioxidant activity assessed as inhibition microsomal lipid peroxidation assessed as malondialdehyde formation at 20 ug/ml by thiobarbituric acid test; settings: Microsome
[2] = Antioxidant activity assessed as inhibition of xanthine-xanthine oxidase generated superoxide anion radical production assessed as formazone formation at 20 ug/ml after 30 mins by spectrophotometric analysis
Rattus norvegicus [3] = assay: Antihyperlipidemic activity in Charles Foster rat assessed as reduction of triton WR-1339-induced plasma total cholesterol level at 25 mg/kg, po after 18 hrs by spectrophotometric analysis
[4] = Antioxidant activity assessed as inhibition microsomal lipid peroxidation assessed as malondialdehyde formation at 100 ug/ml by thiobarbituric acid test; settings: Microsome
Rattus norvegicus [5] = assay: Antihyperlipidemic activity in Charles Foster rat assessed as reduction of triton WR-1339-induced plasma triglyceride level at 25 mg/kg, po after 18 hrs by spectrophotometric analysis
Rattus norvegicus [6] = assay: Antihyperlipidemic activity in Charles Foster rat assessed as reduction of triton WR-1339-induced plasma total cholesterol level at 100 mg/kg, po after 18 hrs by spectrophotometric analysis
Rattus norvegicus [7] = assay: Antihyperlipidemic activity in Charles Foster rat assessed as reduction of triton WR-1339-induced plasma phospholipid level at 25 mg/kg, po after 18 hrs by spectrophotometric analysis
Rattus norvegicus [8] = assay: Antihyperlipidemic activity in Charles Foster rat assessed as reduction of triton WR-1339-induced plasma post heparin lipolytic activity at 100 mg/kg, po after 18 hrs by spectrophotometric analysis
Rattus norvegicus [9] = assay: Antihyperlipidemic activity in Charles Foster rat assessed as reduction of triton WR-1339-induced plasma triglyceride level at 100 mg/kg, po after 18 hrs by spectrophotometric analysis
[10] = Antioxidant activity assessed as inhibition of xanthine-xanthine oxidase generated superoxide anion radical production assessed as formazone formation at 100 ug/ml after 30 mins by spectrophotometric analysis
[11] = Antioxidant activity assessed as inhibition non-enzymatic reactants generated hydroxyl radical production at 100 ug/ml after 90 mins by spectrophotometry
Rattus norvegicus [12] = assay: Antihyperlipidemic activity in Charles Foster rat assessed as reduction of triton WR-1339-induced plasma phospholipid level at 100 mg/kg, po after 18 hrs by spectrophotometric analysis
[13] = Antioxidant activity assessed as inhibition non-enzymatic reactants generated hydroxyl radical production at 20 ug/ml after 90 mins by spectrophotometry

Question: Which Activity [1] does the source give for `Cc1c(C)c2c(c(C)c1O)CC[C@@](C)(CCC[C@H](C)CCC[C@H](C)CCCC(C)C)O2` here?
Answer: 45%

Question: With `Oc1ncnc2[nH]ncc12` as the molecule, how does the Activity [2] read?
Answer: 86%

Question: Which Activity (Rattus norvegicus [3]) does the source give for `Cc1cc(=O)oc2c1ccc1c(OCc3ccccc3)cccc12` here?
Answer: 26%

Question: And the Activity [4]?
Answer: 38%

Question: What about the Activity (Rattus norvegicus [5]) of the same molecule?
Answer: 23%

Question: And the Activity (Rattus norvegicus [6])?
Answer: 28%

Question: And the Activity (Rattus norvegicus [7])?
Answer: 24%

Question: And the Activity (Rattus norvegicus [8])?
Answer: 18%

Question: And the Activity (Rattus norvegicus [9])?
Answer: 28%

Question: What about the Activity [10] of the same molecule?
Answer: 40%

Question: And the Activity [11]?
Answer: 41%

Question: And the Activity (Rattus norvegicus [12])?
Answer: 29%

Question: With `CCOC(=O)COc1cccc2c1ccc1c(C)cc(=O)oc12` as the molecule, how does the Activity [4] read?
Answer: 37%

Question: And the Activity [10]?
Answer: 28%

Question: And the Activity [11]?
Answer: 38%

Question: For `Cc1ccc(C)c(OCCCC(C)(C)C(=O)O)c1` [GEMFIBROZIL], which Activity (Rattus norvegicus [6]) is on record?
Answer: 36%

Question: What about the Activity (Rattus norvegicus [8]) of the same molecule?
Answer: 24%

Question: What about the Activity (Rattus norvegicus [9]) of the same molecule?
Answer: 31%

Question: And the Activity (Rattus norvegicus [12])?
Answer: 35%

Question: Which Activity [13] does the source give for `OC[C@@H](O)[C@@H](O)[C@H](O)[C@H](O)CO` here?
Answer: 48%

Question: With `Cc1cc(=O)oc2c1ccc1c(OC(C)c3ccccc3)cccc12` (stereo not drawn) as the molecule, how does the Activity (Rattus norvegicus [6]) read?
Answer: 23%

Question: And the Activity (Rattus norvegicus [9])?
Answer: 22%

Question: And the Activity (Rattus norvegicus [12])?
Answer: 26%
